Assay results: patent US12495798B2, “Nicotinamide compound and herbicidal composition comprising compound” (KOREA RESEARCH INSTITUTE OF CHEMICAL TECHNOLOGY, priority 2019, dated 2025)

Tests used:
Assay type in all cases: in vivo
indian jointvetch [1] = assay: Herbicidal activity test against upland field weeds (soil treatment test); parameters: key to Soil treatment herbicidal activity, Indian jointvetch: 0 (no control); 100 (complete control); settings: scale 0 (no control) to 100 (complete control)
Outline: (§1)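 Pre-emergence soil surface spray, day after sowing, into sandy loam pots with fertilizer; compounds at 50 or 75 g a.i./ha in 50% acetone, 0.1% Tween-20. Greenhouse at 30±5 °C, 14/10 h light/dark; visual control rated 0–100 against untreated after 14 days (21 if needed).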

sorghum [2] = assay: Herbicidal activity test against upland field weeds (foliar treatment test); settings: scale 0-100
Outline: (§2)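 Greenhouse-grown plants (30±5 °C, 14/10 h light/dark) foliar hand-sprayed with compound in 50% acetone, 0.1% Tween-20 at 50 or 75 g a.i./ha. Control visually scored 0 (none) to 100 (complete) versus untreated after 14 days, or 21 days if needed.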

bindweed [3] = assay: as above; parameters: key to Foliar treatment herbicidal activity, Bindweed: 0 (no control); 100 (complete control); settings: scale 0-100
Outline: as §2

bindweed [4] = assay: Herbicidal activity test against upland field weeds (soil treatment test); parameters: key to Soil treatment herbicidal activity, Bindweed: 0 (no control); 100 (complete control); settings: scale 0 (no control) to 100 (complete control)
Outline: as §1

crabgrass [5] = assay: Herbicidal activity test against upland field weeds (foliar treatment test); settings: scale 0-100
Outline: as §2

cocklebur [6] = assay: Herbicidal activity test against upland field weeds (soil treatment test); parameters: key to Soil treatment herbicidal activity, Cocklebur: 0 (no control); 100 (complete control); settings: scale 0 (no control) to 100 (complete control)
Outline: as §1

barnyard grass [7] = assay: Herbicidal activity test against upland field weeds (foliar treatment test); settings: scale 0-100
Outline: as §2

cocklebur [8] = assay: as above; parameters: key to Foliar treatment herbicidal activity, Cocklebur: 0 (no control); 100 (complete control); settings: scale 0-100
Outline: as §2

sorghum [9] = assay: Herbicidal activity test against upland field weeds (soil treatment test); parameters: key to Soil treatment herbicidal activity, Sorghum: 0 (no control); 100 (complete control); settings: scale 0 (no control) to 100 (complete control)
Outline: as §1

velvetleaf [10] = assay: as above; parameters: key to Soil treatment herbicidal activity, velvet leaf: 0 (no control); 100 (complete control); settings: scale 0 (no control) to 100 (complete control)
Outline: as §1

fall panicum [11] = assay: as above; parameters: key to Soil treatment herbicidal activity, Fall panicum: 0 (no control); 100 (complete control); settings: scale 0 (no control) to 100 (complete control); for pest or weed control at 50 g/ha: Panicum dichotomiflorum
Outline: as §1

fall panicum [12] = assay: Herbicidal activity test against upland field weeds (foliar treatment test); settings: scale 0-100
Outline: as §2

barnyard grass [13] = assay: Herbicidal activity test against upland field weeds (soil treatment test); parameters: key to Soil treatment herbicidal activity, barnyard grass: 0 (no control); 100 (complete control); settings: scale 0 (no control) to 100 (complete control); for pest or weed control at 50 g/ha: Echinochloa crus-galli
Outline: as §1

indian jointvetch [14] = assay: Herbicidal activity test against upland field weeds (foliar treatment test); parameters: key to Foliar treatment herbicidal activity, Indian jointvetch: 0 (no control); 100 (complete control); settings: scale 0-100
Outline: as §2

crabgrass [15] = assay: Herbicidal activity test against upland field weeds (soil treatment test); parameters: key to Soil treatment herbicidal activity, Crabgrass: 0 (no control); 100 (complete control); settings: scale 0 (no control) to 100 (complete control)
Outline: as §1

quack grass = assay: Herbicidal activity test against upland field weeds (foliar treatment test); parameters: key to Foliar treatment herbicidal activity, quack grass: 0 (no control); 100 (complete control); settings: scale 0-100
Outline: as §2

velvetleaf [16] = assay: as above; parameters: key to Foliar treatment herbicidal activity, velvet leaf: 0 (no control); 100 (complete control)
Outline: as §2

[17] = Digitaria sanguinalis, 50 g ai/ha
[18] = Echinochloa crus-galli, 50 g ai/ha
[19] = Xanthium strumarium, 50 g ai/ha
[20] = Panicum dichotomiflorum, 50 g ai/ha
[21] = Abutilon theophrasti, 50 g ai/ha, scale 0-100, read-out: Foliar treatment herbicidal activity, velvet leaf
[22] = Digitaria sanguinalis, 75 g ai/ha
[23] = Xanthium strumarium, 75 g ai/ha

SMILES | Soil treatment herbicidal activity, Indian jointvetch (indian jointvetch [1]; 50 g ai/ha) | Soil treatment herbicidal activity, Bindweed (bindweed [4]; 50 g ai/ha) | Soil treatment herbicidal activity, Cocklebur (cocklebur [6]; 50 g ai/ha) | Soil treatment herbicidal activity, Sorghum (sorghum [9]; 50 g ai/ha) | Soil treatment herbicidal activity, velvet leaf (velvetleaf [10]; 50 g ai/ha) | Soil treatment herbicidal activity, Fall panicum (fall panicum [11]; 50 g ai/ha) | Soil treatment herbicidal activity, barnyard grass (barnyard grass [13]; 50 g ai/ha) | Soil treatment herbicidal activity, Crabgrass (crabgrass [15]; 50 g ai/ha) | Foliar treatment herbicidal activity, quack grass (quack grass; 50 g ai/ha) | plant injury at 50 g/ha (sorghum [2]; Sorghum, 50 g ai/ha) | pest or weed control at 50 g/ha (bindweed [3]; 50 g ai/ha) | pest or weed control at 50 g/ha (crabgrass [5]; [17]) | pest or weed control at 50 g/ha (barnyard grass [7]; [18]) | pest or weed control at 50 g/ha (cocklebur [8]; [19]) | pest or weed control at 50 g/ha (fall panicum [12]; [20]) | pest or weed control at 50 g/ha (indian jointvetch [14]; 50 g ai/ha) | pest or weed control at 50 g/ha (velvetleaf [16]; [21]) | pest or weed control at 50 g/ha (indian jointvetch [1]; 50 g ai/ha) | pest or weed control at 50 g/ha (fall panicum [11]; 50 g ai/ha) | pest or weed control at 50 g/ha (barnyard grass [13]; 50 g ai/ha) | also measured
CCOC(=O)OC(C)N(C(=O)c1ccc(C(F)(F)F)nc1COCc1nnn(C)n1)c1nnnn1C (stereo not drawn) [Compound No. 4-8, ethyl(1-(N-(1-methyl-1H-tetrazol-5-yl)-2-(((2-methyl-2H-tetrazol-5-yl)methoxy)methyl)-6-(trifluoromethyl)nicotinamido)ethyl)carbonate] | 100 | 0 | 0 | 70 | 100 | 0 | 100 | 100 | 0 | – | – | – | – | – | – | – | – | – | – | – | Foliar treatment herbicidal activity, Sorghum (sorghum [2]; 50 g ai/ha): 70; Foliar treatment herbicidal activity, Bindweed (bindweed [3]; 50 g ai/ha): 100; Foliar treatment herbicidal activity, Crabgrass (crabgrass [5]; 50 g ai/ha): 98; Foliar treatment herbicidal activity, barnyard grass (barnyard grass [7]; 50 g ai/ha): 98; Foliar treatment herbicidal activity, Cocklebur (cocklebur [8]; 50 g ai/ha): 100; Foliar treatment herbicidal activity, Fall panicum (fall panicum [12]; 50 g ai/ha): 80; Foliar treatment herbicidal activity, Indian jointvetch (indian jointvetch [14]; 50 g ai/ha): 100; Foliar treatment herbicidal activity, velvet leaf (velvetleaf [16]; 50 g ai/ha, scale 0-100): 100
Cn1nnc(CSCc2nc(C(F)F)ccc2C(=O)Nc2nnnn2C)n1 [Compound No. 2-108, 6-(difluoromethyl)-N-(1-methyl-1H-tetrazol-5-yl)-2-((((2-methyl-2H-tetrazol-5-yl)methyl)thio)methyl)nicotinamide] | 0 | 0 | 0 | 0 | 0 | 0 | 0 | 0 | 0 | 70% | 90% | 60% | 60% | 98% | 50% | 80% | 30% | – | – | – | –
Cn1nnc(COCc2nc(C(F)(F)Cl)ccc2C(=O)Nc2nnnn2C)n1 [Compound No. 2-78, 6-(chlorodifluoromethyl)-N-(1-methyl-1H-tetrazol-5-yl)-2-(((2-methyl-2H-tetrazol-5-yl)methoxy)methyl)nicotinamide] | – | – | – | – | 100 | – | 100 | 100 | 0 | 30% | 40% | 70% | 70% | 60% | 70% | 80% | 60% | 95% | 90% | – | pest or weed control at 50 g/ha (bindweed [4]; 50 g ai/ha): 40%; pest or weed control at 50 g/ha (cocklebur [6]; [19]): 70%; plant injury at 50 g/ha (sorghum [9]; Sorghum, 50 g ai/ha): 50%
Cn1ncnc1COCc1nc(C(F)(F)F)ccc1C(=O)Nc1nnnn1C [Compound No. 1-102, 2-(((1-methyl-1H-1,2,4-triazol-5-yl)methoxy)methyl)-N-(1-methyl-1H-tetrazol-5-yl)-6-(trifluoromethyl)nicotinamide] | – | 0 | 0 | 0 | – | – | – | – | 0 | 50% | 60% | 70% | 80% | 80% | 70% | 80% | 80% | 20% | 70% | 20% | pest or weed control at 50 g/ha (velvetleaf [10]; Abutilon theophrasti, 50 g ai/ha, read-out: Soil treatment herbicidal activity, velvet leaf): 40%; pest or weed control at 50 g/ha (crabgrass [15]; [17]): 20%
CN(Cc1nnn(C)n1)c1nc(C(F)(F)F)ccc1C(=O)Nc1nnnn1C [Compound No. 2-26, 2-(methyl((2-methyl-2H-tetrazol-5-yl)methyl)amino)-N-(1-methyl-1H-tetrazol-5-yl)-6-(trifluoromethyl)nicotinamide] | – | – | – | – | – | – | – | – | – | – | – | – | – | – | – | – | – | – | – | – | Soil treatment herbicidal activity, Indian jointvetch (indian jointvetch [1]; 75 g ai/ha): 100; plant injury at 75 g/ha (sorghum [2]; Sorghum, 75 g ai/ha): 10%; pest or weed control at 75 g/ha (bindweed [3]; 75 g ai/ha): 95%; Soil treatment herbicidal activity, Bindweed (bindweed [4]; 75 g ai/ha): 100; pest or weed control at 75 g/ha (crabgrass [5]; [22]): 95%; pest or weed control at 75 g/ha (cocklebur [6]; [23]): 98%; pest or weed control at 75 g/ha (barnyard grass [7]; Echinochloa crus-galli, 75 g ai/ha): 98%; pest or weed control at 75 g/ha (cocklebur [8]; [23]): 98%; plant injury at 75 g/ha (sorghum [9]; Sorghum, 75 g ai/ha): 20%; Soil treatment herbicidal activity, velvet leaf (velvetleaf [10]; 75 g ai/ha): 100; Soil treatment herbicidal activity, Fall panicum (fall panicum [11]; 75 g ai/ha): 100; pest or weed control at 75 g/ha (fall panicum [12]; Panicum dichotomiflorum, 75 g ai/ha): 70%; Soil treatment herbicidal activity, barnyard grass (barnyard grass [13]; 75 g ai/ha): 100; pest or weed control at 75 g/ha (indian jointvetch [14]; 75 g ai/ha): 90%; pest or weed control at 75 g/ha (crabgrass [15]; [22]): 98%; Foliar treatment herbicidal activity, quack grass (quack grass; 75 g ai/ha): 0; pest or weed control at 75 g/ha (velvetleaf [16]; Abutilon theophrasti, 75 g ai/ha, scale 0-100, read-out: Foliar treatment herbicidal activity, velvet leaf): 98%
Cn1ncnc1COc1nc(C(F)(F)F)ccc1C(=O)Nc1nnnn1C [Compound No. 1-45, 2-((1-methyl-1H-1,2,4-triazol-5-yl)methoxy)-N-(1-methyl-1H-tetrazol-5-yl)-6-(trifluoromethyl)nicotinamide] | 0 | 0 | 0 | 0 | 100 | – | – | 100 | – | 50% | 98% | 95% | 95% | 95% | 95% | 70% | 80% | – | 98% | 98% | pest or weed control at 50 g/ha (quack grass; 50 g ai/ha): 40%
